In the supplement of paper PMC11208160:

assay: recombinant UMI read abundance after kanamycin selection (control-corrected) (log10(CPM+1)); higher = more efficient recombination; extreme values may be limits of the assay; sequences stand for … in AGTGCAGAGAAAATCGGCCAGTTTTCTCTGCCTGCAGTCCGCATGCCGTGGGACCCCTTGGGTTCTAACCTGTTGCCTAGATTTATGCAGCGGACTGCCTTTCTCCCAAAGTGATAAACCGG…AGGTTGGTTTCACT; site = the 11-nt donor
Procedure, shortened: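 In a pooled Escherichia coli screen for the IS621 bridge recombinase, donor and donor-binding-loop pairs were each placed with a 12-nt UMI on a plasmid bearing a promoterless kanamycin gene. This library was co-electroporated with a target plasmid encoding a fixed target and T7-inducible recombinase, and cells were plated either on IPTG (0.07 mM) plus kanamycin or without selection, in two replicates each. Recombinant UMIs were PCR-amplified across the donor–target junction and sequenced, and counts were converted to CPM, averaged over replicates, scaled by control-derived factors and reported as log10(CPM+1).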

Row | Sequence | recombinant UMI read abundance (log10)
1 | TACTTGACATGGACCGGTTTTCCCGGTAATCCGTATTTGCC (site TACTTGACTCG) | 0.0284
2 | TACTTGACATGGACCGGTTTTCCCGGTAATCCGTATTTGCC (site TACTTGACTGG) | 0
3 | TACTTGACATGGACCGGTTTTCCCGGTAATCCGTATTTGCC (site TACTTGACTTG) | 0.00491
4 | TACTTGACATGGACCGGTTTTCCCGGTAATCCGTATTTGTG (site TACTTGACTCA) | 0.00608
5 | TACTTTCCATGGACCGGTTTTCCCGGTAATCCGTATTTGCG (site TACTTTCCTCG) | 1.29
6 | TACTTTCCATGGACCGGTTTTCCCGGTAATCCGTATTTGCT (site TACTTTCCTAG) | 0.537
7 | TACTTTGCATGGACCGGTTTTCCCGGTAATCCGTATTTGGA (site TACTTTGCTTC) | 0.0143
8 | TAGAAATCATGGACCGGTTTTCCCGGTAATCCGTATTTGCG (site TAGAAATCTCG) | 2.05
9 | TAGAAATCATGGACCGGTTTTCCCGGTAATCCGTATTTGCG (site TAGCAATCTCG) | 1.42
10 | TAGAAATCATGGACCGGTTTTCCCGGTAATCCGTATTTGCG (site TAGGAATCTCG) | 1.44
11 | TAGAAATCATGGACCGGTTTTCCCGGTAATCCGTATTTGCG (site TAGTAATCTCG) | 2.33
12 | TAGAACACATGGACCGGTTTTCCCGGTAATCCGTATTTGTC (site TAGAACACTGA) | 2.34
13 | TAGAAGACATGGACCGGTTTTCCCGGTAATCCGTATTTGCC (site TAGAAGACTGG) | 2.25
14 | TAGAATACATGGACCGGTTTTCCCGGTAATCCGTATTTGTA (site TAGAATACTTA) | 1.55
15 | TAGAATACATGGACCGGTTTTCCCGGTAATCCGTATTTGTA (site TAGAATACTTC) | 0.00357
16 | TAGAATACATGGACCGGTTTTCCCGGTAATCCGTATTTGTA (site TAGAATACTTG) | 0.697
17 | TAGAATACATGGACCGGTTTTCCCGGTAATCCGTATTTGTA (site TAGAATACTTT) | 0.208
18 | TAGAATACATGGACCGGTTTTCCCGGTAATCCGTATTTGTG (site TAGAATACTCA) | 2.01
19 | TAGACGACATGGACCGGTTTTCCCGGTAATCCGTATTTGAC (site TAGACGACTGT) | 2.6
20 | TAGACGGCATGGACCGGTTTTCCCGGTAATCCGTATTTGGC (site TAGACGGCTGC) | 2.75
21 | TAGACTCCATGGACCGGTTTTCCCGGTAATCCGTATTTGCA (site TAGACTCCTTG) | 1.54
22 | TAGCAATCATGGACCGGTTTTCCCGGTAATCCGTATTTGCG (site TAGAAATCTCG) | 0
23 | TAGCAATCATGGACCGGTTTTCCCGGTAATCCGTATTTGCG (site TAGCAATCTCG) | 1.45
24 | TAGCAATCATGGACCGGTTTTCCCGGTAATCCGTATTTGCG (site TAGGAATCTCG) | 0
25 | TAGCAATCATGGACCGGTTTTCCCGGTAATCCGTATTTGCG (site TAGTAATCTCG) | 0.646
26 | TAGCAGTCATGGACCGGTTTTCCCGGTAATCCGTATTTGTC (site TAGCAGTCTGA) | 2.39

Row | Sequence | recombinant UMI read abundance (log10)
27 | TAGCCAGCATGGACCGGTTTTCCCGGTAATCCGTATTTGAA (site TAGCAAGCTTT) | 0.0207
28 | TAGCCAGCATGGACCGGTTTTCCCGGTAATCCGTATTTGAA (site TAGCCAGCTTT) | 0.924
29 | TAGCCAGCATGGACCGGTTTTCCCGGTAATCCGTATTTGAA (site TAGCGAGCTTT) | 0.0055
30 | TAGCCAGCATGGACCGGTTTTCCCGGTAATCCGTATTTGAA (site TAGCTAGCTTT) | 0.00915
31 | TAGCCTCCATGGACCGGTTTTCCCGGTAATCCGTATTTGGT (site TAGCCTACTAC) | 0.0161
32 | TAGCCTCCATGGACCGGTTTTCCCGGTAATCCGTATTTGGT (site TAGCCTCCTAC) | 0.00993
33 | TAGCCTCCATGGACCGGTTTTCCCGGTAATCCGTATTTGGT (site TAGCCTGCTAC) | 0.0298
34 | TAGCCTCCATGGACCGGTTTTCCCGGTAATCCGTATTTGGT (site TAGCCTTCTAC) | 0
35 | TAGCCTGCATGGACCGGTTTTCCCGGTAATCCGTATTTGGT (site TAGCCTACTAC) | 0.00931
36 | TAGCCTGCATGGACCGGTTTTCCCGGTAATCCGTATTTGGT (site TAGCCTCCTAC) | 0.00394
37 | TAGCCTGCATGGACCGGTTTTCCCGGTAATCCGTATTTGGT (site TAGCCTGCTAC) | 0.0393
38 | TAGCCTGCATGGACCGGTTTTCCCGGTAATCCGTATTTGGT (site TAGCCTTCTAC) | 0.00419
39 | TAGCCTTCATGGACCGGTTTTCCCGGTAATCCGTATTTGAT (site TAGCCTTCTAA) | 0.00922
40 | TAGCCTTCATGGACCGGTTTTCCCGGTAATCCGTATTTGAT (site TAGCCTTCTAC) | 0.0113
41 | TAGCCTTCATGGACCGGTTTTCCCGGTAATCCGTATTTGAT (site TAGCCTTCTAG) | 0
42 | TAGCCTTCATGGACCGGTTTTCCCGGTAATCCGTATTTGAT (site TAGCCTTCTAT) | 0
43 | TAGCCTTCATGGACCGGTTTTCCCGGTAATCCGTATTTGCT (site TAGCCTTCTAA) | 0.0333
44 | TAGCCTTCATGGACCGGTTTTCCCGGTAATCCGTATTTGCT (site TAGCCTTCTAC) | 0.00853
45 | TAGCCTTCATGGACCGGTTTTCCCGGTAATCCGTATTTGCT (site TAGCCTTCTAG) | 0
46 | TAGCCTTCATGGACCGGTTTTCCCGGTAATCCGTATTTGCT (site TAGCCTTCTAT) | 0
47 | TAGCCTTCATGGACCGGTTTTCCCGGTAATCCGTATTTGGT (site AAGCCTTCTAC) | 0.00534
48 | TAGCCTTCATGGACCGGTTTTCCCGGTAATCCGTATTTGGT (site CAGCCTTCTAC) | 0.00723
49 | TAGCCTTCATGGACCGGTTTTCCCGGTAATCCGTATTTGGT (site GAGCCTTCTAC) | 0.0148
50 | TAGCCTTCATGGACCGGTTTTCCCGGTAATCCGTATTTGGT (site TAACCTTCTAC) | 0
51 | TAGCCTTCATGGACCGGTTTTCCCGGTAATCCGTATTTGGT (site TACCCTTCTAC) | 0.00592
52 | TAGCCTTCATGGACCGGTTTTCCCGGTAATCCGTATTTGGT (site TAGACTTCTAC) | 0
